Measurements published in patent publication US10485841B2, “Method for producing dry extracts” (Bionorica SE, priority 2011, dated 2019).

Key:
[1] = system: carrageen-induced paw oedema; experiment: carrageen-induced paw oedema in rats (Example 2); type: in vivo, rat; settings: 30 minutes following carrageen injection, FIG. 3
Source text: (§1) The anti-inflammatory activity of Sinupret could be confirmed in the animal model. For example, carrageen-induced paw oedema in rats (Male Wistar Han rats, 220-230 g) was selected as the test model. In this model, it was possible to examine the anti-inflammatory effect of test substances by measuring their inhibitory effect on the paw oedema or pleuritis caused by carrageen. The following were used as reference substances: (RS)-2-[4-(2-methylpropyl)phenyl]propanoic acid (Ibuprofen®) and 2-[1-(4-chlorobenzoyl)-5-methoxy-2-methyl-1H-indol-3-yl] acetic acid (indomethacin, “indo”). In the present tests, groups of 10 rats in each case were treated either with Ibuprofen®, indomethacin, Sinupret® dry extract (SIN TR) or Sinupret® drug mixture (SIN, as commercially available) and were injected one hour later with carrageen. The inhibition of the oedema formation by the test and reference substances was determined at various moments in time after carrageen injection, wherein the paw volume of animals treated only with carrageen was used as a control (vehicle=blank control). The results of these tests are presented in Tables 1 and 2 and in FIGS. 3 to 6 and will be explained hereinafter.

[2] = system: carrageen-induced pleuritis; experiment: carrageen-induced pleuritis in rats; type: in vivo, rat; settings: 5 mg/kg
Source text: as §1
Rats (10 per group) were each treated with 100 mg/kg or 500 mg/kg of SIN and by way of comparison with 5 mg/kg of indomethacin and blank and were injected 1 hour later with carrageen.
“Inflammatory cells” correlates to PMN (polymorphonuclear neutrophils) accumulation/infiltration.
Statistics: average+/−SEM, n=10, ** p<0.01; ***p<0.001 vs vehicle (blank) (Tukey Test), p<0.05 is statistically significant.
Rats (10 per group) were each treated with 100 mg/kg or 500 mg/kg of SIN TR and by way of comparison with 5 mg/kg of indomethacin and blank and were injected one hour later with carrageen.

[3] = 4 h after carrageen, mean ± SEM, n=10

## CC(C)Cc1ccc(C(C)C(=O)O)cc1 (racemic) [Ibuprofen®, (RS)-2-[4-(2-methylpropyl)phenyl]propanoic acid]
[1]
  inhibition of paw oedema: still did not show any anti-inflammatory effect

## COc1ccc2c(c1)c(CC(=O)O)c(C)n2C(=O)c1ccc(Cl)cc1 [Indomethacin, 2-[1-(4-chlorobenzoyl)-5-methoxy-2-methyl-1H-indol-3-yl] acetic acid]
[2]; 4 h
  exudate volume, inhibition vs vehicle: (96%)
  inflammatory cells, inhibition vs vehicle: (70%)
[2]; [3]
  IL1β: 3.17 ± 0.18 ng/rat
  LTB4: 0.43 ± 0.02 ng/rat
  PGE2: <0.125 ng/rat
  TNFα: 5.48 ± 0.28 ng/rat
  exudate volume: 0.009 ± 0.003 mL
  inflammatory cells × 10^6: 11.4 ± 0.93 × 10^6
